In US9611276B2, “Imidazo bicyclic iminium compounds as antitumor agents” (THE BOARD OF TRUSTEES OF THE LELAND STANFORD JUNIOR …, priority 2012, dated 2017):

tested on: BCC allograft tumors; assay: Murine BCC allograft model; type: in vivo, mouse; settings: 0.01% solution, topical, day 14
Method: Murine BCC allograft model: Ptch1+/−; K14:Cre-ER2; p53fl/fl mice were injected with tamoxifen (to knock out p53) at six weeks of age, and at 8 weeks of age they were given one dose of 4 Gy of ionizing radiation. After BCCs formed and grew to 5-7 mm in diameter (typically between 6-8 months of age), they were harvested and dissociated to prepare a cell suspension. A mixture of the cell suspension and Matrigel was then injected subcutaneously into NOD/SCID mice purchased from Jackson Laboratories. Once the allografted tumors became visible, they were monitored with digital calipers and the volume was estimated by the formula (d^2)*D/2, where d is the smallest diameter of the tumor and D is the largest diameter. The compound was applied topically to the tumor as a DMSO solution (100 μL per application).

SMILES | Tumor volume compared to control
CCOc1ccc(-[n+]2cc(-c3ccc(-c4ccccc4)cc3)n3c2CCCCC3)cc1 [Compound A-8] | reduced tumor volume by half

tested on: SANT-1-resistant BCC line; assay: Proliferation of SANT-1-resistant BCC line; type: cell-based, mouse; settings: not given
Description: (§1) Murine basal cell carcinomas (BCCs) were derived from Ptch1+/−; p53−/− mice subjected to UV radiation [Aszterbaum et al., Nat. Med. (1999) 5:1285-91]. A line resistant to the Smo antagonist SANT-1 was obtained by culturing the cells in media containing increasing concentrations of the inhibitor until the majority of cells were killed and resistant clones emerged.

SMILES | Proliferation of SANT-1-resistant line
CCOc1ccc(-[n+]2cc(-c3ccc(-c4ccccc4)cc3)n3c2CCCCC3)cc1 [Compound A-8] | able to block the proliferation

tested on: BCC cell line; assay: Murine basal cell carcinoma (BCC) cell proliferation; type: cell-based, mouse; settings: not given
Description: as §1

SMILES | Proliferation of original BCC cell line
CCOc1ccc(-[n+]2cc(-c3ccc(-c4ccccc4)cc3)n3c2CCCCC3)cc1 [Compound A-8] | able to block the proliferation

same assay, conditions: 750 nM, dose-dependent

SMILES | BCC proliferation
CCOc1ccc(-[n+]2cc(-c3ccc(-c4ccccc4)cc3)n3c2CCCCC3)cc1 [Compound A-8] | 20 % of control

tested on: Gli2; assay: Gli2 trafficking assay in NIH 3T3 cells; type: cell-based; settings: ShhN treatment
Method: NIH 3T3 cells were also employed in an assay to quantify Gli2 trafficking NIH-3T3 cells were seeded into 24-well plates containing poly-D-lysine-coated 12-mm glass coverslips (65,000 cells/well) and cultured for 24 hrs. […] Each compound or vehicle treatment was conducted in biological triplicates in the presence or absence of 10% (v/v) ShhN-conditioned medium. The cells were subsequently fixed in PBS containing 4% (v/v) paraformaldehyde for 12 min at room temperature, washed three times with PBS, permeabilized in PBS containing 0.5% (v/v) Triton X-100 for 5 min, and washed again twice in PBS. […] After three PBS washes, the coverslips were mounted onto slides using Prolong Gold Antifade Reagent with DAPI (Invitrogen, P36931). The cells were imaged using a Plan Apochromat 63×/1.4-0.6 oil immersion objective on an upright Leica DM4500B compound microscope. Ciliary Gli2 levels were quantified by determining total pixel intensity within a circular region manually placed at the distal end of each cilium and subtracting background fluorescence in an adjacent region of equivalent size. A total of 30 cilia from three coverslips were analyzed to determine the average ciliary Gli2 level for each experimental condition as a measure of Gli2 trafficking.

SMILES | Effect on ShhN-induced Gli2 accrual at the ciliary distal tip
CC1=C2C[C@H]3[C@@H](CC=C4C[C@@H](O)CC[C@@]43C)[C@@H]2CC[C@]12O[C@@H]1C[C@H](C)CN[C@H]1[C@H]2C [cyclopamine, reference compound] | cyclopamine-sensitive

tested on: Hh pathway activity; assay: Sufu-KO-LIGHT cell assay, Gli-dependent firefly luciferase reporter; type: cell-based, mouse; settings: Mus musculus
Method: Sufu-KO-LIGHT cells were derived from Sufu knockout mouse embryonic fibroblasts according to the method of Chen et al. [Genes Dev. 2009; 23(16):1910-28.] The cells were co-transfected with the zeocin resistance vector (pVgRXR, Invitrogen) and a firefly luciferase reporter driven by eight Gli binding sites and a γ-crystallin basal promoter (8XGliBS-FL) [see Sasaki et al. Development. 1997; 124(7):1313-22.2]. […] Sufu-KO-LIGHT cells were cultured in DMEM (Invitrogen, 11965) containing 10% (v/v) fetal bovine serum (Invitrogen, No. 26140), 150 μg/mL zeocin (Invitrogen, R250-01), 1 mM sodium pyruvate (Invitrogen, 11360) and 1× PenStrep (Gibco, 15140).
All test compounds were dissolved in DMSO at 50 mM, serially diluted by 1:3, 1:4 or 1:5 in a 96-well translucent microplate (Greiner bio-one, 650201) and stored at −20° C. These serial dilutions were added to assay media freshly with final DMSO concentration of 0.2% (v/v).
The Sufu-KO-LIGHT cell assay provides a measure of Hh pathway activity and cytotoxicity. Sufu-KO-LIGHT cells were seeded into a 96-well plate (35,000 cells/well), cultured to confluency for 24 hrs and then incubated with test compounds in DMEM without phenol red (Invitrogen, 26140) containing 0.5% (v/v) fetal bovine serum (Invitrogen, No. 26140), 150 μg/mL zeocin (Invitrogen, R250-01), 1 mM sodium pyruvate (Invitrogen, 11360), 1× PenStrep (Gibco, 15140) for 16 hrs. Bright Glo (Promega, E2620) reagent (50 μL/well) was added to the cells, and luciferase activities were determined on a microplate luminometer (Veritas). To assess cytotoxicity, after 15 hrs of incubation with test compounds, CellTiter 96 AQueous One Solution Cell Proliferation Assay (Promega, G3580) reagent (20 μL/well) was added. Cell viability was determined by measuring absorption at 490 nm after 1 hr of incubation on a microplate spectrophotometer (Benchmark Plus, Bio-Rad). Biological triplicates were analyzed for each test compounds.

SMILES | IC50 [µM]
Brc1ccc(-c2c[n+](-c3ccccc3)c3n2CCCCC3)cc1 [Compound A-2] | 7.9
COc1ccccc1-[n+]1cc(-c2ccc(Br)cc2)n2c1CCCCC2 [Compound A-3] | 0.34
Brc1ccc(-c2c[n+](-c3ccc4c(c3)OCCO4)c3n2CCCCC3)cc1 [Compound A-4] | 5
FC(F)(F)c1cccc(-[n+]2cc(-c3ccc(Br)cc3)n3c2CCCCC3)c1 [Compound A-5] | 12.3
Clc1ccc(-[n+]2cc(-c3ccc(Br)cc3)n3c2CCCCC3)cc1 [Compound A-6] | 11.7
COc1ccc(-c2c[n+](-c3ccc(Br)cc3)c3n2CCCCC3)cc1 [Compound A-15] | 3.3

same assay, conditions: Mus musculus; Table 1; assay not given, A-1 value equals the Sufu-KO-LIGHT value; read-out: IC50

IC50 [µM] | SMILES
3 | CCOc1ccc(-[n+]2cc(-c3ccc(Cl)cc3)n3c2CCCCC3)cc1 [Compound A-7]
0.19 ± 0.14 | CCOc1ccc(-[n+]2cc(-c3ccc(-c4ccccc4)cc3)n3c2CCCCC3)cc1 [Compound A-8]
1.7 | CCOc1ccc(-[n+]2cc(-c3ccccc3)n3c2CCCCC3)cc1 [Compound A-9]
2.5 | CCOc1ccc(-[n+]2cc(-c3ccc(OC)cc3)n3c2CCCCC3)cc1 [Compound A-10]
2.5 | COc1ccc(-[n+]2cc(-c3ccc(Cl)cc3)n3c2CCCCC3)cc1 [Compound A-11]
13.9 | COc1ccc(-[n+]2cc(-c3ccc(OC(F)F)cc3)n3c2CCCCC3)cc1 [Compound A-12]
17.5 | FC(F)Oc1ccc(-[n+]2cc(-c3ccc(Cl)cc3)n3c2CCCCC3)cc1 [Compound A-13]
7.4 | CCOc1ccc(-c2c[n+](-c3cccc(C(F)(F)F)c3)c3n2CCCCC3)cc1 [Compound A-16]
2.9 | CCc1ccc(-[n+]2cc(-c3ccc(OC(F)F)cc3)n3c2CCCCC3)cc1 [Compound A-17]
0.08 | CCOc1ccc(-c2c[n+](-c3ccccc3OC)c3n2CCCCC3)cc1 [Compound A-18]
0.03 | COc1ccccc1-[n+]1cc(-c2ccc(-c3ccccc3)cc2)n2c1CCCCC2 [Compound A-19]

same assay, conditions: Mus musculus; Table 2; assay not given; read-out: IC50

IC50 [µM] | SMILES
1.6 | CCOc1ccc(-[n+]2c(-c3ccc(OC)cc3)cn3c2CCCCC3)cc1 [Compound C-1]
3.1 | COc1ccc(-c2cn3c([n+]2-c2ccccc2OC)CCCCC3)cc1 [Compound C-2]
4.2 | COc1ccc(-c2cn3c([n+]2-c2ccc(C)cc2)CCCCC3)cc1 [Compound C-3]
11.5 | COc1ccc(-c2cn3c([n+]2-c2ccc(Cl)cc2)CCCCC3)cc1 [Compound C-4]
1.2 | CCOc1ccc(-c2c(C)n3c([n+]2-c2ccc(OCC)cc2)CCCCC3)cc1 [Compound C-5]
11.7 | COc1ccc(-[n+]2c(-c3ccc(Cl)cc3)cn3c2CCCCC3)cc1 [Compound C-6]
6.3 | COc1ccc(-[n+]2c(-c3ccc(OC(F)F)cc3)cn3c2CCCCC3)cc1 [Compound C-7]
4.1 | COc1ccc(-[n+]2c(-c3ccccc3)cn3c2CCCCC3)cc1 [Compound C-8]
27 | Clc1ccc(-c2cn3c([n+]2-c2ccc(Cl)cc2)CCCCC3)cc1 [Compound C-9]

same assay, conditions: Mus musculus; Table 3; assay not given; read-out: IC50

IC50 [µM] | SMILES
0.96 | CCOc1ccc(-[n+]2cc(-c3ccccc3)n3c2CCC3)cc1 [Compound D-1]
3.1 | COc1ccc(-c2c[n+](-c3ccc(OC)cc3)c3n2CCS3)cc1 [Compound D-2]
1.1 | COc1ccc(-[n+]2cc(-c3ccc(C)cc3)n3c2SC(C)C3)cc1 [Compound D-3]
2.6 | COc1ccc(-[n+]2cc(-c3ccc(Br)cc3)n3c2SCC3C)cc1 [Compound D-4]
2.4 | COc1ccc(-[n+]2cc(-c3ccc(Cl)cc3)n3c2SCCC3)cc1 [Compound D-5]
14.1 | COc1ccc(-c2c[n+](-c3ccc(OC)cc3)c3n2CCOC3)cc1 [Compound D-6]
0.14 | CCOc1ccc(-c2c[n+](-c3ccc(OC)cc3)c3n2-c2ccccc2CC3)cc1.[Br-] [Compound E-1]

tested on: medulloblastoma allograft tumors; assay: Murine medulloblastoma allograft model; type: in vivo, mouse; settings: 2 mg/kg/day, intraperitoneal, day 5
Method: Murine medulloblastoma allograft model: Ptch1+/−; p53+/−; Math1:GFP mice were mated to generate pups with the appropriate genotype of Ptch1+/−; p53−/−; Math1:GFP. These mice will get medulloblastoma tumors when they are 6 to 10 weeks of age. The primary medulloblastoma tumors were harvested, dissected, dissociated by papain treatment and tissue trituration, and injected into the flanks of nude mice as a Matrigel mixture (50 μL of 2×10^7 tumor cells mixed with 50 μL of Matrigel). Secondary and tertiary tumors can subsequently be derived from these allografts as necessary. The length, width, and depth of each allograft were monitored, and compound testing began when the tumors reached a volume of 150 mm3 (approximately one week after tumors were first visible). The compounds were dissolved in a minimum volume of DMSO, and the DMSO solution was mixed with sterile corn oil so that the DMSO constituted less than 10% of the total volume. The drug was administered by intraperitoneal injection (50 μL), with each daily dose divided into two portions and administered at 12-hour intervals. The Smoothened antagonist vismodegib was administered at 50 mg/kg/day as a positive control.

SMILES | Tumor volume compared to control
CCOc1ccc(-c2c[n+](-c3ccc(OC)cc3)c3n2-c2ccccc2CC3)cc1.[Br-] [Compound E-1] | reduced tumor volume by half

molecular target: T1, Smo (Mus musculus, UniProt P56726); assay: Smo trafficking assay in NIH 3T3 cells; type: cell-based; settings: Hh-responsive cells, ShhN stimulation
T1 construct: endogenous in cells; host or cells: NIH 3T3
Description: The cells were imaged using a Plan Apochromat 63×/1.4-0.6 oil immersion objective on an upright Leica DM4500B compound microscope.

T1 sequence (P56726 33-793): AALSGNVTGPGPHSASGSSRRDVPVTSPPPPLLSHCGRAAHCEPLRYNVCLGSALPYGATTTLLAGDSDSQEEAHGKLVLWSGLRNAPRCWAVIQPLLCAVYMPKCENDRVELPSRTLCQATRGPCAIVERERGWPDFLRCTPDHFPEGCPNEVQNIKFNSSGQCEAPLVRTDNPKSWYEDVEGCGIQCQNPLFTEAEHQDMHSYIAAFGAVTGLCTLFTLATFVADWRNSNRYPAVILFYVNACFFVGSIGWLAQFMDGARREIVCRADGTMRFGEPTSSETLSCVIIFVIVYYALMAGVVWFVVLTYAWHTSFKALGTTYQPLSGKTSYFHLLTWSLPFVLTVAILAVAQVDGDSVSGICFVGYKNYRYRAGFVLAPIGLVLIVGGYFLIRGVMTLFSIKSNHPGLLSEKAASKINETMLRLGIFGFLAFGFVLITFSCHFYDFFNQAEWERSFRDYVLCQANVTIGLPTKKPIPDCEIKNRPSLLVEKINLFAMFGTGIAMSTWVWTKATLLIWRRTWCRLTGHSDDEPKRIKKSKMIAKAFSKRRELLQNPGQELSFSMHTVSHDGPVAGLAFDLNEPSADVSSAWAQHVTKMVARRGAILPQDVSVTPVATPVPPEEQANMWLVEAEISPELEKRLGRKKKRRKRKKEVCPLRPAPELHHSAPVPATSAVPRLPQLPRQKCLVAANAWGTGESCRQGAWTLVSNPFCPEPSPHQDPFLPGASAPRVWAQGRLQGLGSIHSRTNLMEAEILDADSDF

SMILES | Effect on Smo localization / trafficking
CC1=C2C[C@H]3[C@@H](CC=C4C[C@@H](O)CC[C@@]43C)[C@@H]2CC[C@]12O[C@@H]1C[C@H](C)CN[C@H]1[C@H]2C [cyclopamine, reference compound] | alters Smo trafficking
